Source: patent publication US8802597B2, “Herbicidal pyrimidines” (E I du Pont de Nemours and Company, priority 2003, dated 2014)
Like-named read-outs stand apart in the source and are kept apart here.

Assays:
Assay type in all cases: in vivo
[1] = system: blackgrass (Alopecurus myosuroides); assay: Test C postemergence
In short: (§1)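 Injury scored visually 12–14 days after application on 0–100 scale (100 = complete control), relative to controls. Compounds, formulated with surfactant in non-phytotoxic solvent, applied to soil at planting (pre) or to 1- to 4-leaf plants 2–18 cm tall (post) in greenhouse.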

[2] = system: canarygrass (Phalaris minor); assay: Test C postemergence
In short: as §1

[3] = system: green foxtail (Setaria viridis); assay: Test C postemergence
In short: as §1

[4] = system: windgrass (Apera spica-venti); assay: Test C postemergence
In short: as §1

wild oat (Avena fatua) = assay: Test C postemergence
In short: as §1

[5] = system: winter barley (Hordeum vulgare); assay: Test C postemergence
In short: as §1

[6] = system: wheat (Triticum aestivum); assay: Test C postemergence
In short: as §1

[7] = system: Italian ryegrass (Lolium multiflorum); assay: Test C postemergence
In short: as §1

[8] = system: downy brome (Bromus tectorum); assay: Test C postemergence
In short: as §1

[9] = system: velvetleaf (Abutilon theophrasti); assay: Test A pre/postemergence; details: Abutilon theophrasti, 240 h, read-out: Plant response rating, Velvetleaf; for pest or weed control at 125 g/ha: 125 g ai/ha; for pest or weed control at 500 g/ha: 500 g ai/ha
In short: (§2)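 Visual injury scored 0–100 (0 = no effect, 100 = complete control) against untreated controls after about ten days in the greenhouse. Compounds, formulated in non-phytotoxic solvent plus surfactant, were applied preemergence as a directed soil spray and postemergence at the 1- to 2-leaf stage (2–10 cm).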

[10] = system: giant foxtail (Setaria faberi); assay: Test A pre/postemergence; details: Setaria faberi, 240 h, read-out: Plant response rating, Foxtail, Giant; for pest or weed control at 125 g/ha: 125 g ai/ha; for pest or weed control at 500 g/ha: 500 g ai/ha
In short: as §2

[11] = system: redroot pigweed (Amaranthus retroflexus); assay: Test A pre/postemergence; details: Amaranthus retroflexus, 240 h, read-out: Plant response rating, Pigweed; for pest or weed control at 125 g/ha: 125 g ai/ha; for pest or weed control at 500 g/ha: 500 g ai/ha
In short: as §2

[12] = system: morningglory (Ipomoea spp.); assay: Test A pre/postemergence; details: Ipomoea, 240 h, read-out: Plant response rating, Morningglory; for pest or weed control at 125 g/ha: 125 g ai/ha; for pest or weed control at 500 g/ha: 500 g ai/ha
In short: as §2

[13] = post-emergence, Postemergence, 0 to 100 scale (0 no effect, 100 complete control)
[14] = pre-emergence, Preemergence, 0 to 100 scale where 0 is no effect and 100 is complete control, approximately ten days

## Nc1nc(-c2ccc(Cl)cc2)nc(C(=O)O)c1Cl [Compound 65, 6-amino-5-chloro-2-(4-chlorophenyl)-4-pyrimidinecarboxylic acid]
[1]; 16 g ai/ha
  Plant response rating (scale of 0 to 100), Blackgrass: 50
[1]; 31 g ai/ha
  Plant response rating (scale of 0 to 100), Blackgrass: 60
[1]; 62 g ai/ha
  Plant response rating (scale of 0 to 100), Blackgrass: 65
[1]; Alopecurus myosuroides, post-emergence, 125 g ai/ha, scale 0 to 100 (0 no effect, 100 complete control), read-out: Blackgrass plant response rating
  pest or weed control at 125 g/ha: 65%
[2]; 16 g ai/ha
  Plant response rating (scale of 0 to 100), Canarygrass: 30
[2]; 31 g ai/ha
  Plant response rating (scale of 0 to 100), Canarygrass: 30
[2]; 62 g ai/ha
  Plant response rating (scale of 0 to 100), Canarygrass: 35
[2]; Phalaris minor, post-emergence, 125 g ai/ha, scale 0 to 100 (0 no effect, 100 complete control), read-out: Canarygrass plant response rating
  pest or weed control at 125 g/ha: 45%
[3]; 16 g ai/ha
  Plant response rating (scale of 0 to 100), Foxtail, Green: 50
[3]; 31 g ai/ha
  Plant response rating (scale of 0 to 100), Foxtail, Green: 55
[3]; 62 g ai/ha
  Plant response rating (scale of 0 to 100), Foxtail, Green: 60
[3]; Setaria viridis, post-emergence, 125 g ai/ha, scale 0 to 100 (0 no effect, 100 complete control), read-out: Foxtail, Green plant response rating
  pest or weed control at 125 g/ha: 70%
[4]; 16 g ai/ha
  Plant response rating (scale of 0 to 100), Windgrass: 50
[4]; 31 g ai/ha
  Plant response rating (scale of 0 to 100), Windgrass: 60
[4]; 62 g ai/ha
  Plant response rating (scale of 0 to 100), Windgrass: 70
[4]; Apera spica-venti, post-emergence, 125 g ai/ha, scale 0 to 100 (0 no effect, 100 complete control), read-out: Windgrass plant response rating
  pest or weed control at 125 g/ha: 70%
Wild oat (Avena fatua); 16 g ai/ha
  Plant response rating (scale of 0 to 100), Oat, Wild: 5
Wild oat (Avena fatua); 31 g ai/ha
  Plant response rating (scale of 0 to 100), Oat, Wild: 15
Wild oat (Avena fatua); 62 g ai/ha
  Plant response rating (scale of 0 to 100), Oat, Wild: 20
Wild oat (Avena fatua); Avena fatua, post-emergence, 125 g ai/ha, scale 0 to 100 (0 no effect, 100 complete control), read-out: Oat, Wild plant response rating
  pest or weed control at 125 g/ha: 40%
[5]; 16 g ai/ha
  Plant response rating (scale of 0 to 100), Barley: 40
[5]; 31 g ai/ha
  Plant response rating (scale of 0 to 100), Barley: 40
[5]; Hordeum vulgare, post-emergence, 62 g ai/ha, scale 0 to 100 (0 no effect, 100 complete control), read-out: Barley plant response rating
  plant injury at 62 g/ha: 50%
[5]; Hordeum vulgare, post-emergence, 125 g ai/ha, scale 0 to 100 (0 no effect, 100 complete control), read-out: Barley plant response rating
  plant injury at 125 g/ha: 50%
[6]; 16 g ai/ha
  Plant response rating (scale of 0 to 100), Wheat: 40
[6]; 31 g ai/ha
  Plant response rating (scale of 0 to 100), Wheat: 40
[6]; 62 g ai/ha
  Plant response rating (scale of 0 to 100), Wheat: 45
[6]; Triticum aestivum, post-emergence, 125 g ai/ha, scale 0 to 100 (0 no effect, 100 complete control), read-out: Wheat plant response rating
  plant injury at 125 g/ha: 45%
[7]; 16 g ai/ha
  Plant response rating (scale of 0 to 100), Ryegrass, Italian: 10
[7]; 31 g ai/ha
  Plant response rating (scale of 0 to 100), Ryegrass, Italian: 50
[7]; 62 g ai/ha
  Plant response rating (scale of 0 to 100), Ryegrass, Italian: 55
[7]; Lolium multiflorum, post-emergence, 125 g ai/ha, scale 0 to 100 (0 no effect, 100 complete control), read-out: Ryegrass, Italian plant response rating
  pest or weed control at 125 g/ha: 60%
[8]; 16 g ai/ha
  Plant response rating (scale of 0 to 100), Bromegrass, Downy: 40
[8]; 31 g ai/ha
  Plant response rating (scale of 0 to 100), Bromegrass, Downy: 50
[8]; 62 g ai/ha
  Plant response rating (scale of 0 to 100), Bromegrass, Downy: 50
[8]; Bromus tectorum, post-emergence, 125 g ai/ha, scale 0 to 100 (0 no effect, 100 complete control), read-out: Bromegrass, Downy plant response rating
  pest or weed control at 125 g/ha: 55%
[9]; [13]
  pest or weed control at 125 g/ha: 95%
  pest or weed control at 500 g/ha: 100%
[9]; [14]
  pest or weed control at 125 g/ha: 55%
  pest or weed control at 500 g/ha: 95%
[10]; [13]
  pest or weed control at 125 g/ha: 85%
  pest or weed control at 500 g/ha: 95%
[10]; [14]
  pest or weed control at 125 g/ha: 40%
  pest or weed control at 500 g/ha: 80%
[11]; [13]
  pest or weed control at 125 g/ha: 100%
  pest or weed control at 500 g/ha: 100%
[11]; [14]
  pest or weed control at 125 g/ha: 100%
  pest or weed control at 500 g/ha: 100%
[12]; [13]
  pest or weed control at 125 g/ha: 75%
  pest or weed control at 500 g/ha: 95%
[12]; [14]
  pest or weed control at 125 g/ha: 25%
  pest or weed control at 500 g/ha: 90%
